The test addresses T1, active p38 alpha enzyme (Upstate Biotechnology) (Homo sapiens, UniProt Q16539).
T1 construct: purchased Upstate Biotechnology
Put plainly: p38α biochemical assay (ATP turnover, luminescent detection, Cambrex PKlight). As to conditions: p38α kinase; Table 1 Biological Activity. A digest of the protocol: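 Active human p38α was incubated with full-length MapkapK2 protein as substrate and 1.4 uM ATP (final) for 2 hours at 30C. Buffer: 200 mM Tris, 100 mM MgCl2, 1.5 mM EGTA, 4 mM CaCl2, 20 mM MOPS, 1 mM EDTA, 1% glycerol, 0.1% β-mercaptoethanol, 1 mg/ml BSA. Total ATP turnover read by luminescence.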

SMILES strings stand for the structures.

T1 sequence (Q16539 whole entry): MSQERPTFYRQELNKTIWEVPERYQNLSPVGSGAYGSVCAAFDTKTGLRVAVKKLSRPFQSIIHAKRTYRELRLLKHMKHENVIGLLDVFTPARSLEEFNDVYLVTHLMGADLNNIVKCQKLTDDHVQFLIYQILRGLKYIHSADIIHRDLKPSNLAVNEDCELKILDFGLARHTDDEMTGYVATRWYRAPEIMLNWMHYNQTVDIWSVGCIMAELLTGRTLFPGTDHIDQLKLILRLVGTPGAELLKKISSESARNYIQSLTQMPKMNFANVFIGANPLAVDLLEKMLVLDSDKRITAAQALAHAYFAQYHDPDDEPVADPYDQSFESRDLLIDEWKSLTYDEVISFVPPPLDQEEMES

The term IC50 denotes the concentration at which inhibition is half-maximal. In turn, `CC(C)NC(=O)c1csc(-c2oc(CN3CCCN(Cc4ccccc4)CC3)nc2-c2ccc(F)cc2)n1` [Example 1250] registered an IC50 of more than 1000 nM.

As for `CC(C)NC(=O)c1csc(-c2oc(CN3CCN(c4ccc(O)cc4)CC3)nc2-c2ccc(F)cc2)n1` [Example 1251], the IC50 is more than 1000 nM.

Compound `CC(C)NC(=O)c1csc(-c2oc(CN(CCN(C)C)Cc3ccccc3)nc2-c2ccc(F)cc2)n1` [Example 1252] registered an IC50 of more than 1000 nM. The figure for `CC(C)NC(=O)c1csc(-c2oc(CN3CCN(c4ccccc4F)CC3)nc2-c2ccc(F)cc2)n1` [Example 1253] is more than 1000 nM; for `CC(C)NC(=O)c1csc(-c2oc(CN3CCN(c4ccc(F)cc4)CC3)nc2-c2ccc(F)cc2)n1` [Example 1254] it is more than 1000 nM. The figure for `CC(C)NC(=O)c1csc(-c2oc(CN3CCN(CC4CCCCC4)CC3)nc2-c2ccc(F)cc2)n1` [Example 1255] is more than 1000 nM; for `CC(C)NC(=O)c1csc(-c2oc(CN(C)C[C@H](O)c3ccc(O)c(O)c3)nc2-c2ccc(F)cc2)n1` [Example 1256] it is more than 1000 nM. As for `CCOC(=O)CC1C(=O)NCCN1Cc1nc(-c2ccc(F)cc2)c(-c2nc(C(=O)NC(C)C)cs2)o1` (stereo not drawn) [Example 1257], the figure is more than 1000 nM. Compound `CC(C)NC(=O)c1csc(-c2oc(CN3CCN(C(=O)OC(C)(C)C)CC3)nc2-c2ccc(F)cc2)n1` [Example 1258] registered a half-maximal inhibitory concentration (IC50) of more than 1000 nM. The figure for `CC(C)NC(=O)c1csc(-c2oc(CN3CCC(NC(=O)OC(C)(C)C)C3)nc2-c2ccc(F)cc2)n1` (stereo not drawn) [Example 1259] is more than 1000 nM; for `CC(C)NC(=O)c1csc(-c2oc(CN3CCN(c4ccccc4C#N)CC3)nc2-c2ccc(F)cc2)n1` [Example 1260] it is more than 1000 nM.

`CC(C)NC(=O)c1csc(-c2oc(CN3CCN(c4ccc(C#N)cn4)CC3)nc2-c2ccc(F)cc2)n1` [Example 1261] came in with an IC50 of more than 1000 nM. In turn, `Cc1cccc(N2CCN(Cc3nc(-c4ccc(F)cc4)c(-c4nc(C(=O)NC(C)C)cs4)o3)CC2)c1C` [Example 1262] registered an IC50 of more than 1000 nM.

`Cc1cccc(N2CCN(Cc3nc(-c4ccc(F)cc4)c(-c4nc(C(=O)NC(C)C)cs4)o3)CC2C)c1` (stereo not drawn) [Example 1264] registered an IC50 of more than 1000 nM. The figure for `CC(C)NC(=O)c1csc(-c2oc(CN3CCN(CCc4ccccc4)CC3)nc2-c2ccc(F)cc2)n1` [Example 1265] is more than 1000 nM; for `Cc1ccc(N2CCN(Cc3nc(-c4ccc(F)cc4)c(-c4nc(C(=O)NC(C)C)cs4)o3)CC2)cc1C` [Example 1266] it is more than 1000 nM; for `Cc1ccc(N2CCN(Cc3nc(-c4ccc(F)cc4)c(-c4nc(C(=O)NC(C)C)cs4)o3)CC2)c(C)c1` [Example 1267] it is more than 1000 nM. For `Cc1ccc(C)c(N2CCN(Cc3nc(-c4ccc(F)cc4)c(-c4nc(C(=O)NC(C)C)cs4)o3)CC2)c1` [Example 1268], the half-maximal inhibitory concentration (IC50) was more than 1000 nM. As for `COc1ccc(N2CCN(Cc3nc(-c4ccc(F)cc4)c(-c4nc(C(=O)NC(C)C)cs4)o3)CC2)cc1` [Example 1269], the IC50 is more than 1000 nM. Regarding `COc1ccccc1N1CCN(Cc2nc(-c3ccc(F)cc3)c(-c3nc(C(=O)NC(C)C)cs3)o2)CC1` [Example 1270], the half-maximal inhibitory concentration (IC50) was more than 1000 nM. As for `COc1cccc(N2CCN(Cc3nc(-c4ccc(F)cc4)c(-c4nc(C(=O)NC(C)C)cs4)o3)CC2)c1` [Example 1271], the figure is more than 1000 nM; as for `COc1ccc(CCN(C)Cc2nc(-c3ccc(F)cc3)c(-c3nc(C(=O)NC(C)C)cs3)o2)cc1OC` [Example 1272], more than 1000 nM; as for `CC(C)NC(=O)c1csc(-c2oc(CN3CCN(c4cccc(Cl)c4)CC3)nc2-c2ccc(F)cc2)n1` [Example 1273], more than 1000 nM. As for `CC(C)NC(=O)c1csc(-c2oc(CN3CCN(c4ccc(Cl)cc4)CC3)nc2-c2ccc(F)cc2)n1` [Example 1274], the figure is more than 1000 nM; as for `CC(C)NC(=O)c1csc(-c2oc(CN3CCN(c4ccc(F)cc4F)CC3)nc2-c2ccc(F)cc2)n1` [Example 1276], more than 1000 nM. As for `CC(C)NC(=O)c1csc(-c2oc(CN(Cc3cccnc3)Cc3cccnc3)nc2-c2ccc(F)cc2)n1` [Example 1277], the figure is more than 1000 nM; as for `CC(C)NC(=O)c1csc(-c2oc(CN3CCN(CCN4CCOCC4)CC3)nc2-c2ccc(F)cc2)n1` [Example 1278], more than 1000 nM.

In the case of `CC(C)NC(=O)c1csc(-c2oc(CN3CCC(N(C)C(=O)OC(C)(C)C)C3)nc2-c2ccc(F)cc2)n1` (stereo not drawn) [Example 1279], the half-maximal inhibitory concentration (IC50) is more than 1000 nM. As for `CC(=O)c1ccc(N2CCN(Cc3nc(-c4ccc(F)cc4)c(-c4nc(C(=O)NC(C)C)cs4)o3)CC2)cc1` [Example 1280], the figure is more than 1000 nM.

As to `CCN(CC)CCN(Cc1ccccc1)Cc1nc(-c2ccc(F)cc2)c(-c2nc(C(=O)NC(C)C)cs2)o1` [Example 1281], the IC50 is more than 1000 nM. For the compound `CC(C)NC(=O)c1csc(-c2oc(CN3CCN(c4ccc([N+](=O)[O-])cc4)CC3)nc2-c2ccc(F)cc2)n1` [Example 1282], the IC50 was more than 1000 nM. The figure for `CC(C)NC(=O)c1csc(-c2oc(CN(C)Cc3cccc4ccccc34)nc2-c2ccc(F)cc2)n1` [Example 1283] is more than 1000 nM.

`Cc1ccc(Cl)cc1N1CCN(Cc2nc(-c3ccc(F)cc3)c(-c3nc(C(=O)NC(C)C)cs3)o2)CC1` [Example 1284] displayed an IC50 of more than 1000 nM.

`COc1cc(CN(C)Cc2nc(-c3ccc(F)cc3)c(-c3nc(C(=O)NC(C)C)cs3)o2)cc(OC)c1OC` [Example 1285] yielded a concentration for half-maximal inhibition (IC50) of more than 1000 nM. As for `CC(C)NC(=O)c1csc(-c2oc(CN(CCc3ccccc3)Cc3ccccc3)nc2-c2ccc(F)cc2)n1` [Example 1286], the figure is more than 1000 nM; as for `CC(C)NC(=O)c1csc(-c2oc(CN(C)C(Cc3ccccc3)c3ccccc3)nc2-c2ccc(F)cc2)n1` (stereo not drawn) [Example 1288], more than 1000 nM; as for `CC(C)NC(=O)c1csc(-c2oc(CN3CCC(O)(c4ccc(Cl)cc4)CC3)nc2-c2ccc(F)cc2)n1` [Example 1289], more than 1000 nM.

`C#CCN(Cc1nc(-c2ccc(F)cc2)c(-c2nc(C(=O)NC(C)C)cs2)o1)Cc1ccc(Cl)cc1Cl` [Example 1290]: the half-maximal inhibitory concentration (IC50) is more than 1000 nM. Regarding `CCN(Cc1nc(-c2ccc(F)cc2)c(-c2nc(C(=O)NC(C)C)cs2)o1)C(Cc1ccccc1)c1ccco1` (stereo not drawn) [Example 1291], the 50% inhibitory concentration (IC50) was more than 1000 nM.

`CC(C)NC(=O)c1csc(-c2oc(CN3CCN(C(=O)OC(C)(C)C)C[C@H]3CO)nc2-c2ccc(F)cc2)n1` [Example 1292] had an IC50 of more than 1000 nM.

With `CC(C)NC(=O)c1csc(-c2oc(CN3CCN(c4ccc(C(C)(C)C)cc4)CC3)nc2-c2ccc(F)cc2)n1` [Example 1293], the IC50 was more than 1000 nM. `CC(C)NC(=O)c1csc(-c2oc(CN3CCN(Cc4ccc5c(c4)OCO5)CC3)nc2-c2ccc(F)cc2)n1` [Example 1294] registered a concentration for half-maximal inhibition (IC50) of more than 1000 nM. `COc1cc2c(cc1OC)CN(Cc1nc(-c3ccc(F)cc3)c(-c3nc(C(=O)NC(C)C)cs3)o1)CC2` [Example 1295]: the half-inhibitory concentration (IC50) is more than 1000 nM. As for `CC(C)NC(=O)c1csc(-c2oc(CN3CCN(c4ccc(C(F)(F)F)cc4)CC3)nc2-c2ccc(F)cc2)n1` [Example 1296], the figure is more than 1000 nM. The figure for `CC(C)NC(=O)c1csc(-c2oc(CN3CCN(c4cccc(C(F)(F)F)c4)CC3)nc2-c2ccc(F)cc2)n1` [Example 1297] is more than 1000 nM; for `CC(C)NC(=O)c1csc(-c2oc(CN3CCN(c4ccc(Cl)c(Cl)c4)CC3)nc2-c2ccc(F)cc2)n1` [Example 1298] it is more than 1000 nM; for `CC(C)NC(=O)c1csc(-c2oc(CN3CCN(c4ccc(C(F)(F)F)cn4)CC3)nc2-c2ccc(F)cc2)n1` [Example 1300] it is more than 1000 nM. With `CC(C)NC(=O)c1csc(-c2oc(CN3CCN(c4ccccc4Cl)CC3)nc2-c2ccc(F)cc2)n1` [Example 1301], the half-maximal inhibitory concentration (IC50) was more than 1000 nM. As for `COc1ccc(N2CCN(Cc3nc(-c4ccc(F)cc4)c(-c4nc(C(=O)NC(C)C)cs4)o3)CC2)cc1OC` [Example 1302], the figure is more than 1000 nM.

For the compound `CC(C)NC(=O)c1csc(-c2oc(CN3CCCC(c4ccc(C(F)(F)F)cc4)C3)nc2-c2ccc(F)cc2)n1` (stereo not drawn) [Example 1303], the 50% inhibitory concentration (IC50) was more than 1000 nM.

On to `CC(C)NC(=O)c1csc(-c2oc(CNC3CCCc4ccccc43)nc2-c2ccc(F)cc2)n1` (stereo not drawn) [Example 1304], for which the concentration for half-maximal inhibition (IC50) is more than 1000 nM. As for `CC(C)NC(=O)c1csc(-c2oc(CNc3ccccc3)nc2-c2ccc(F)cc2)n1` [Example 1307], the figure is more than 1000 nM; as for `Cc1cccc(NCc2nc(-c3ccc(F)cc3)c(-c3nc(C(=O)NC(C)C)cs3)o2)c1` [Example 1308], more than 1000 nM. With `Cc1ccc(NCc2nc(-c3ccc(F)cc3)c(-c3nc(C(=O)NC(C)C)cs3)o2)cc1` [Example 1309], the IC50 is more than 1000 nM. The figure for `Cc1ccccc1NCc1nc(-c2ccc(F)cc2)c(-c2nc(C(=O)NC(C)C)cs2)o1` [Example 1310] is more than 1000 nM; for `Cc1ccc(NCc2nc(-c3ccc(F)cc3)c(-c3nc(C(=O)NC(C)C)cs3)o2)nc1` [Example 1311] it is more than 1000 nM.

For the compound `Cc1cccc(NCc2nc(-c3ccc(F)cc3)c(-c3nc(C(=O)NC(C)C)cs3)o2)n1` [Example 1312], the 50% inhibitory concentration (IC50) was more than 1000 nM. As for `Cc1ccnc(NCc2nc(-c3ccc(F)cc3)c(-c3nc(C(=O)NC(C)C)cs3)o2)c1` [Example 1313], the figure is more than 1000 nM; as for `Cc1cccnc1NCc1nc(-c2ccc(F)cc2)c(-c2nc(C(=O)NC(C)C)cs2)o1` [Example 1314], more than 1000 nM. The figure for `CC(C)NC(=O)c1csc(-c2oc(CNc3ccccc3F)nc2-c2ccc(F)cc2)n1` [Example 1315] is more than 1000 nM. As for `CC(C)NC(=O)c1csc(-c2oc(CNc3ccc(F)cc3)nc2-c2ccc(F)cc2)n1` [Example 1316], the figure is more than 1000 nM. In the case of `Cc1ccc(C)c(NCc2nc(-c3ccc(F)cc3)c(-c3nc(C(=O)NC(C)C)cs3)o2)c1` [Example 1317], the half-maximal inhibitory concentration (IC50) is more than 1000 nM.

In the case of `Cc1ccc(NCc2nc(-c3ccc(F)cc3)c(-c3nc(C(=O)NC(C)C)cs3)o2)cc1C` [Example 1318], the IC50 is more than 1000 nM.

The record behind these values is patent US20060252807A1, “Novel ortho-terphenyl inhibitors of p38 kinase and methods of treating inflammatory disorders” (Kalypsys, Inc., priority 2005, published 2006).
